Toxic doses and inconclusive results are not listed.

This test has as its system L1210 leukemia ip in BDF1 mice, survival T/C. As to the kind of experiment: NCI In Vivo Anticancer Drug Screen. Data for tumor model L1210 Leukemia (intraperitoneal) in B6D2F1 (BDF1) mice. Conditions: endpoint: mean survival time, higher = longer survival. The method, boiled down: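 Ratio derived from survival: compound-dosed mice over vehicle-dosed mice, all bearing a transplantable tumor.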

Setting [1] is: dose: 100.0 mg/kg/injection, schedule: Q01DX009 (ip), vehicle: saline with Tween-80.
Where [2] appears, read: dose: 200.0 mg/kg/injection, schedule: Q01DX009 (ip), vehicle: saline with Tween-80.
The mark [3] stands for this setting: dose: 400.0 mg/kg/injection, schedule: Q01DX009 (ip), vehicle: saline with Tween-80.
[4] abbreviates: dose: 100.0 mg/kg/injection, schedule: Q01DX001 (ip), vehicle: saline.
Setting [5] is: dose: 200.0 mg/kg/injection, schedule: Q01DX001 (ip), vehicle: saline.
[6] abbreviates: dose: 400.0 mg/kg/injection, schedule: Q01DX001 (ip), vehicle: saline.
Where [7] appears, read: dose: 100.0 mg/kg/injection, schedule: Q01DX009 (ip), vehicle: other.
Setting [8] is: dose: 200.0 mg/kg/injection, schedule: Q01DX009 (ip), vehicle: other.
The mark [9] stands for this setting: dose: 400.0 mg/kg/injection, schedule: Q01DX009 (ip), vehicle: other.
The mark [10] stands for this setting: dose: 50.0 mg/kg/injection, schedule: Q01DX001 (ip), vehicle: saline.
[11] abbreviates: dose: 100.0 mg/kg/injection, schedule: Q04DX003 (ip), vehicle: Klucel (hydroxypropylcellulose) (HPC).
Setting [12] is: dose: 200.0 mg/kg/injection, schedule: Q04DX003 (ip), vehicle: Klucel (hydroxypropylcellulose) (HPC).
Where [13] appears, read: dose: 400.0 mg/kg/injection, schedule: Q04DX003 (ip), vehicle: Klucel (hydroxypropylcellulose) (HPC).

`ClCC1COC(Cc2ccccc2)O1` (configuration not stated): the T/C runs as follows: (dose: 222.0 mg/kg/injection, schedule: Q01DX Z (ip), vehicle: saline) 97 % of control; (dose: 333.0 mg/kg/injection, schedule: Q01DX Z (ip), vehicle: saline) 97 % of control; (dose: 500.0 mg/kg/injection, schedule: Q01DX Z (ip), vehicle: saline) 103 % of control.

Regarding `CCOP(=S)(NCCOC)OCC`, the T/C by setting is: under setting [1], 97 % of control; under setting [2], 94 % of control; under setting [3], 95 % of control.

Regarding `O=[N+]([O-])c1cccc(/C=C/C=C/c2c(Cl)cccc2Cl)c1`, the T/C was 91 % of control under setting [4], 94 % of control under setting [5] and 100 % of control under setting [6].

For the molecule `CN(C)c1ncnc2c1ncn2C1CCCO1` (configuration not stated), the T/C is 97 % of control (dose: 25.0 mg/kg/injection, schedule: Q01DX Z (ip), vehicle: methylcellulose (MC)) and 92 % of control (dose: 50.0 mg/kg/injection, schedule: Q01DX Z (ip), vehicle: methylcellulose (MC)).

On to `O=C(Nc1nccs1)NC1CCCCC1`, for which the T/C was 100 % of control under setting [7], 96 % of control under setting [8] and 93 % of control under setting [9].

For the molecule `CCCC(C)c1ccc(N=NC2C(=O)c3ccccc3C2=O)cc1` (configuration not stated), the T/C runs as follows: under setting [10], 100 % of control; under setting [4], 94 % of control; under setting [5], 94 % of control; under setting [6], 103 % of control.

On to `C[Si](C)Cc1cccc(F)c1`, for which the T/C by setting is: under setting [11], 105 % of control; under setting [12], 105 % of control; under setting [13], 100 % of control.

For `CCCCOC(=O)CC(C(=O)OCCCC)S(=O)(=O)O` (configuration not stated), the T/C is, setting by setting: under setting [4], 96 % of control; under setting [5], 104 % of control; under setting [6], 101 % of control.

For `CN(CC#N)/N=N/c1nc[nH]c1C(N)=O`, the T/C (dose: 50.0 mg/kg/injection, schedule: Q01DX Z (ip), vehicle: carboxymethylcellulose (CMC)) is 118 % of control and the T/C (dose: 75.0 mg/kg/injection, schedule: Q01DX Z (ip), vehicle: carboxymethylcellulose (CMC)) was 107 % of control.

Regarding `CCCCNC(=O)Nc1ncn[nH]1`, the T/C runs as follows: (dose: 75.0 mg/kg/injection, schedule: Q01DX001 (ip), vehicle: carboxymethylcellulose (CMC)) 103 % of control; (dose: 150.0 mg/kg/injection, schedule: Q01DX001 (ip), vehicle: carboxymethylcellulose (CMC)) 104 % of control; (dose: 300.0 mg/kg/injection, schedule: Q01DX001 (ip), vehicle: carboxymethylcellulose (CMC)) 97 % of control.

As for `CC1=NNC(c2ccco2)C1` (configuration not stated), the T/C reads like this: under setting [4], 91 % of control; under setting [5], 94 % of control; under setting [6], 100 % of control.

With `CCCCC/C=C\C/C=C/CCCCCCCC1=NC(C)(CO)CO1` (configuration not stated), the T/C under setting [4] is 92 % of control, the T/C under setting [5] is 98 % of control and the T/C under setting [6] was 98 % of control.

With `Cc1cc(N(CCCOS(C)(=O)=O)CCCOS(C)(=O)=O)ccc1C=Nc1cccc(Br)c1`, the T/C was 96 % of control under setting [1], 94 % of control under setting [2] and 91 % of control under setting [3].

Turning to `C/C=C/C=C/C(=O)c1cc(C#N)c(OC)cc1O`, the T/C by setting is: (dose: 100.0 mg/kg/injection, schedule: Q01DX001 (ip), vehicle: saline with Tween-80) 93 % of control; (dose: 200.0 mg/kg/injection, schedule: Q01DX001 (ip), vehicle: saline with Tween-80) 90 % of control; (dose: 400.0 mg/kg/injection, schedule: Q01DX001 (ip), vehicle: saline with Tween-80) 93 % of control.

In the case of `N=c1c2ncn(C3OC(CO)C(O)C3O)c2ncn1O` (configuration not stated), the T/C under setting [10] is 101 % of control; the T/C (dose: 75.0 mg/kg/injection, schedule: Q01DX001 (ip), vehicle: saline) was 111 % of control; the T/C under setting [4] was 103 % of control; the T/C (dose: 150.0 mg/kg/injection, schedule: Q01DX001 (ip), vehicle: saline) is 105 % of control.

`CCCCCCCCCCCCCCCCCC1=NCC[N+]1(CCO)Cc1ccccc1` (configuration not stated) (tested in a mixture with another compound): the T/C (dose: 12.5 mg/kg/injection, schedule: Q04DX003 (ip), vehicle: saline with Tween-80) was 98 % of control and the T/C (dose: 25.0 mg/kg/injection, schedule: Q04DX003 (ip), vehicle: saline with Tween-80) was 101 % of control.

For `O=C(CC(NCc1ccccc1)C(=O)O)c1ccccc1` (configuration not stated), the T/C is, setting by setting: under setting [4], 100 % of control; under setting [5], 97 % of control; under setting [6], 97 % of control.

With `O=C(Nc1ccc(Cl)c([N+](=O)[O-])c1)Oc1ccccc1F`, the T/C is, setting by setting: (dose: 100.0 mg/kg/injection, schedule: Q01DX009 (ip), vehicle: Klucel (hydroxypropylcellulose) (HPC)) 92 % of control; under setting [11], 97 % of control; (dose: 200.0 mg/kg/injection, schedule: Q01DX009 (ip), vehicle: Klucel (hydroxypropylcellulose) (HPC)) 101 % of control; under setting [12], 97 % of control; under setting [13], 96 % of control.

With `O=C(Nc1ccc(Cl)cc1)Oc1ccccn1`, the T/C under setting [1] is 93 % of control, the T/C under setting [2] is 91 % of control and the T/C under setting [3] was 91 % of control.

`CC1SCC(NC(=O)N(CCCl)N=O)CS1` (configuration not stated): the T/C was 150 % of control (dose: 8.0 mg/kg/injection, schedule: Q01DX001 (ip), vehicle: saline with Tween-80); 264 % of control (dose: 12.0 mg/kg/injection, schedule: Q01DX001 (ip), vehicle: saline with Tween-80); 389 % of control (dose: 18.0 mg/kg/injection, schedule: Q01DX001 (ip), vehicle: saline with Tween-80); 368 % of control (dose: 26.0 mg/kg/injection, schedule: Q01DX001 (ip), vehicle: saline with Tween-80); 104 % of control (dose: 60.0 mg/kg/injection, schedule: Q01DX001 (ip), vehicle: saline with Tween-80).

For `CCOC(=O)CCC(=O)c1cccc([N+](=O)[O-])c1`, the T/C reads like this: under setting [1], 98 % of control; under setting [2], 96 % of control; under setting [3], 96 % of control.

Consider `COC(=O)C12C3C=CC(O3)C1(C(=O)OC)C1C=CC2O1` (configuration not stated), for which the T/C is 100 % of control (dose: 87.5 mg/kg/injection, schedule: Q01DX009 (ip), vehicle: Klucel (hydroxypropylcellulose) (HPC)); 97 % of control (dose: 175.0 mg/kg/injection, schedule: Q01DX009 (ip), vehicle: Klucel (hydroxypropylcellulose) (HPC)); 101 % of control (dose: 350.0 mg/kg/injection, schedule: Q01DX009 (ip), vehicle: Klucel (hydroxypropylcellulose) (HPC)).

Consider `CC1(CO)COC(c2ccccc2)=N1` (configuration not stated), for which the T/C was 109 % of control under setting [7], 103 % of control under setting [8] and 109 % of control under setting [9].

As for `Nc1c(-c2ncc[nH]2)ncn1C1OC(CO)C(O)C1O` (configuration not stated), the T/C runs as follows: (dose: 100.0 mg/kg/injection, schedule: Q01DX005 (ip), vehicle: saline) 94 % of control; (dose: 200.0 mg/kg/injection, schedule: Q01DX005 (ip), vehicle: saline) 93 % of control.

For the molecule `COc1ccc2c(c1)CSC(c1ccccc1)=C2`, the T/C is 98 % of control (dose: 25.0 mg/kg/injection, schedule: Q04DX002 (ip), vehicle: Klucel (hydroxypropylcellulose) (HPC)); 120 % of control (dose: 50.0 mg/kg/injection, schedule: Q04DX002 (ip), vehicle: Klucel (hydroxypropylcellulose) (HPC)); 98 % of control (dose: 100.0 mg/kg/injection, schedule: Q04DX002 (ip), vehicle: Klucel (hydroxypropylcellulose) (HPC)).

With `C=CCC(CC=C)(C(N)=O)c1ccc(OC)cc1`, the T/C runs as follows: (dose: 100.0 mg/kg/injection, schedule: Q01DX001 (ip), vehicle: carboxymethylcellulose (CMC)) 100 % of control; (dose: 200.0 mg/kg/injection, schedule: Q01DX001 (ip), vehicle: carboxymethylcellulose (CMC)) 97 % of control; (dose: 400.0 mg/kg/injection, schedule: Q01DX001 (ip), vehicle: carboxymethylcellulose (CMC)) 111 % of control.

For `Cc1cn(-c2ccccc2)c(=O)[nH]c1=O`, the T/C (dose: 100.0 mg/kg/injection, schedule: Q01DX001 (ip), vehicle: other) is 112 % of control.

Regarding `CC[C@@]1(O)C[C@H](OC2CC(N(C)C)C(O)C(C)O2)c2c(O)c3c(c(O)c2[C@H]1OC1CC(N(C)C)C(O)C(C)O1)C(=O)c1cccc(O)c1C3=O` (some centres not stated), where the note is “dose: 0.5 mg/kg/injection, schedule: Q01DX009 (ip), vehicle: saline”, the T/C was 110 % of control.

Values taken from PubChem BioAssay AID248 (DTP/NCI, 2004).
